Experimental data: patent US20200361930A1, “BIFUNCTIONAL MOLECULES THAT DEGRADE EGFR” (Hoffmann-La Roche Inc., priority 2018, published 2020)

The compounds below were run against T1, EGFR T790M/L858R/C797S (Homo sapiens, UniProt P00533, C797S/L858R/T790M) (assay: EGFR degradation assay (cellular), FRET quantification of total EGFR). Conditions: BaF3 EGFR T790M/L858R/C797S cells, 4 hours incubation, total EGFR FRET signal, top concentration 1 μM; read-out: IC50 value (BaF3 EGFR T790M/L858R/C797S degradation).
T1 construct: expressed in transfected cells; host or cells: BaF3 (Ba/F3) cells, lentivirally transduced with a pCDH vector under the PGK promoter
Type: cell-based
Protocol: EGFR Degradation Assay (Cellular)
The BaF3 parental line was purchased from DSMZ and grown in RPMI media supplemented with 10% FBS and 10 ng/mL interleukin 3 (IL-3) (Thermo Fisher Scientific). EGFR mutants (T790M/L853R, T790M/L853R/C797S) were cloned into the pCDH lentiviral vector (SystemBio) under the control of a PGK promoter and confirmed by DNA sequencing. The resulting gene expression vector for each mutant was mixed with packaging vectors and cotransfected into 2×10E6 HEK293T cells (ATCC) in 10 mL of DMEM media to generate lentiviral particles according to the manufacturers protocol (Origene).
Three days post-transfection, the viral supernatant was harvested and filtered. In one well of a 12-well plate, 0.5 mL of viral supernatant was added to 2E6 Ba/F3 cells contained in 1.5 mL of RPMI media including 10% FBS, 10 ng/mL IL-3, and 5 μg/mL polybrene (Invitrogen). The plate was centrifuged at 2,000 rpm for 1 hour at room temperature and infected cells were kept in a tissue culture incubator overnight at 37° C. The cells were washed once in fresh BaF3 media and reseeded at 0.5E6 cells/well of a 12-well plate in media supplemented with 0.5 μg/mL puromycin. The cells were maintained in this media for 3 weeks. IL-3-independent, EGFR mutant transformed cells were routinely maintained in RPMI medium supplemented with 10% FBS.
RPMI 1640 no-phenol red medium and fetal bovine serum (FBS) were purchased from Gibco (Grand Island, N.Y., USA). EGFR total kit and EGFR phospho-Y1068 kit were purchased from Cisbio (Bedford, Mass., USA). BaF3 EGFR mutant cell lines (EGFR T790M/L858R/C797S) cell line was generated in house, according to the protocol reported above. Cell culture flasks and 384-well microplates were acquired from VWR (Radnor, Pa., USA).
EGFR degradation was determined based on quantification of FRET signal using EGFR total kit. The FRET signal detected correlates with total EGFR protein level in cells. Briefly, test compounds were added to the 384-well plate from a top concentration of 1 μM with 11 points, half log titration in quadruplicates. Then, BaF3 EGFR mutant cell lines (EGFR T790M/L858R/C797S) were added into 384-well plates at a cell density of 10000 cells per well. The plates were kept at 37° C. with 5% CO2 for 4 hours. After 4-hour incubation, 4× lysis buffer was added to the cells, and then then microplate was agitated on plate shaker at 500 rpm for 30 minutes at room temperature. Next, total EGFR antibody solution was added to the cells and the cells were incubated for another 4 hours at room temperature. Finally, FRET signal was acquired on EnVision™ Multilabel Reader (PerkinElmer, Santa Clara, Calif., USA). The cells treated in the absence of the test compound were the negative control and lysis buffer with antibody solution only were the positive control.

T1 sequence (P00533 25-1210 T790M/C797S/L858R): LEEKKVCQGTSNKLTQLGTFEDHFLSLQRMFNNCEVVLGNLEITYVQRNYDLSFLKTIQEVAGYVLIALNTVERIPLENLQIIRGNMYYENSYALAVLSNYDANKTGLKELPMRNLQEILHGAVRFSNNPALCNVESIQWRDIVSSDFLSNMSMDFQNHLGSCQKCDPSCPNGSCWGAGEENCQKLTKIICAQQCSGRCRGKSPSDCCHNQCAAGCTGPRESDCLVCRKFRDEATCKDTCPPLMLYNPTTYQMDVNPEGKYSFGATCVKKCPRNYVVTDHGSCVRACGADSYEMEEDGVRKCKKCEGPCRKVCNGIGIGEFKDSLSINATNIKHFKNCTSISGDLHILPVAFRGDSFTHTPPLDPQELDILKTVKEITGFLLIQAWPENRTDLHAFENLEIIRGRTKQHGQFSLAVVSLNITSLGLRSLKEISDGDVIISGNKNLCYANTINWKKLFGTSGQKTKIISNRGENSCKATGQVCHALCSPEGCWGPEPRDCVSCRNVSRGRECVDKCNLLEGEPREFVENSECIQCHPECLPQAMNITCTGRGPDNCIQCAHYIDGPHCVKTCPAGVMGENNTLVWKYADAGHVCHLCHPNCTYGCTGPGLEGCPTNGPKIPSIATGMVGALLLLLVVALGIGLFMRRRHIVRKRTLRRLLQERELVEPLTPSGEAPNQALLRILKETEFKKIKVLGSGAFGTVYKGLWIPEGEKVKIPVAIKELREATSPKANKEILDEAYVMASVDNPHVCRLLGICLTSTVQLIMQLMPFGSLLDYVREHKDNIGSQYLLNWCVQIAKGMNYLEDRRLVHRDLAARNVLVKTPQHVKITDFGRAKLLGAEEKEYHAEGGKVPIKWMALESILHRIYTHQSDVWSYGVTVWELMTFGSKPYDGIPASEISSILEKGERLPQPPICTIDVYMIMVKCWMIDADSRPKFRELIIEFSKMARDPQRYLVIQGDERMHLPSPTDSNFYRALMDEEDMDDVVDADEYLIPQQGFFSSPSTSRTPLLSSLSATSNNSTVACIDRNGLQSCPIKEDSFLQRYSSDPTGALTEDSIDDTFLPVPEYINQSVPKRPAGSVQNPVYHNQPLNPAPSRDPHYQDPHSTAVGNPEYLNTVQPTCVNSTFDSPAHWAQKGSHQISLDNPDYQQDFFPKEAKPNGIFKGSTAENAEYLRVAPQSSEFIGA

| SMILES | DC50 |
| --- | --- |
| O=C1CCC(N2C(=O)c3cccc(NCCCC(=O)N4CCN(Cc5ccc(C#Cc6ccc7c(c6)C(=O)N(C(C(=O)Nc6nccs6)c6ccccc6)C7)cn5)CC4)c3C2=O)C(=O)N1 (racemic) [Example 4, (2RS)-2-[6-[2-[6-[[4-[4-[[2-[(3RS)-2,6-Dioxo-3-piperidyl]-1,3-dioxo-isoindolin-4-yl]amino]butanoyl]piperazin-1-yl]methyl]-3-pyridyl]ethynyl]-1-oxo-isoindolin-2-yl]-2-phenyl-N-thiazol-2-yl-acetamide] | 0.014 µM |
| O=C1CCC(N2C(=O)c3cccc(N4CCC(CC(=O)N5CCN(Cc6ccc(C#Cc7ccc8c(c7)C(=O)N(C(C(=O)Nc7ccccn7)c7ccccc7)C8)cn6)CC5)CC4)c3C2=O)C(=O)N1 (racemic) [Example 12, (2RS)-2-[6-[2-[6-[[4-[2-[1-[2-[(3RS)-2,6-Dioxo-3-piperidyl]-1,3-dioxo-isoindolin-4-yl]-4-piperidyl]acetyl]piperazin-1-yl]methyl]-3-pyridyl]ethynyl]-1-oxo-isoindolin-2-yl]-2-phenyl-N-(2-pyridyl)acetamide] | 0.038 µM |
| O=C1CCC(N2C(=O)c3cccc(NCCCCN4CCC(NC(=O)c5ccc(C#Cc6ccc7c(c6)C(=O)N(C(C(=O)Nc6nccs6)c6ccccc6)C7)cn5)CC4)c3C2=O)C(=O)N1 (racemic) [Example 6, N-[1-[4-[[2-[(3RS)-2,6-Dioxo-3-piperidyl]-1,3-dioxo-isoindolin-4-yl]amino]butyl]-4-piperidyl]-5-[2-[3-oxo-2-[(1RS)-2-oxo-1-phenyl-2-(thiazol-2-ylamino)ethyl]isoindolin-5-yl]ethynyl]pyridine-2-carboxamide] | 0.021 µM |
| O=C1CCC(N2C(=O)c3cccc(NCCCCCC(=O)N4CCN(Cc5ccc(C#Cc6ccc7c(c6)C(=O)N(C(C(=O)Nc6nccs6)c6ccccc6)C7)cc5)CC4)c3C2=O)C(=O)N1 (racemic) [Example 1, (2RS)-2-[6-[2-[4-[[4-[6-[[2-[(3RS)-2,6-Dioxo-3-piperidyl]-1,3-dioxo-isoindolin-4-yl]amino]hexanoyl]piperazin-1-yl]methyl]phenyl]ethynyl]-1-oxo-isoindolin-2-yl]-2-phenyl-N-thiazol-2-yl-acetamide] | 0.04 µM |
| O=C1CCC(N2C(=O)c3cccc(NCCCC(=O)N4CCC(NC(=O)c5ccc(C#Cc6ccc7c(c6)C(=O)N(C(C(=O)Nc6nccs6)c6ccccc6)C7)cn5)CC4)c3C2=O)C(=O)N1 (racemic) [Example 2, N-[1-[4-[[2-[(3RS)-2,6-Dioxo-3-piperidyl]-1,3-dioxo-isoindolin-4-yl]amino]butanoyl]-4-piperidyl]-5-[2-[3-oxo-2-[(1RS)-2-oxo-1-phenyl-2-(thiazol-2-ylamino)ethyl]isoindolin-5-yl]ethynyl]pyridine-2-carboxamide] | 0.021 µM |
| O=C1CCC(N2C(=O)c3cccc(NCCCC(=O)N4CCN(Cc5ccc(C#Cc6ccc7c(c6)C(=O)N(C(C(=O)Nc6nccs6)c6ccccc6)C7)cc5)CC4)c3C2=O)C(=O)N1 (racemic) [Example 3, (2RS)-2-[6-[2-[4-[[4-[4-[[2-[(3RS)-2,6-Dioxo-3-piperidyl]-1,3-dioxo-isoindolin-4-yl]amino]butanoyl]piperazin-1-yl]methyl]phenyl]ethynyl]-1-oxo-isoindolin-2-yl]-2-phenyl-N-thiazol-2-yl-acetamide] | 0.035 µM |
| O=C1CCC(N2C(=O)c3cccc(NCCCC(=O)N4CCC(NC(=O)c5ccc(C#Cc6ccc7c(c6)C(=O)N(C(C(=O)Nc6nccs6)c6cc(F)ccc6O)C7)cn5)CC4)c3C2=O)C(=O)N1 (racemic) [Example 7, N-[1-[4-[[2-[(3RS)-2,6-Dioxo-3-piperidyl]-1,3-dioxo-isoindolin-4-yl]amino]butanoyl]-4-piperidyl]-5-[2-[2-[(1RS)-1-(5-fluoro-2-hydroxy-phenyl)-2-oxo-2-(thiazol-2-ylamino)ethyl]-3-oxo-isoindolin-5-yl]ethynyl]pyridine-2-carboxamide] | 0.012 µM |
| O=C1CCC(N2C(=O)c3cccc(NCC(=O)N4CCC(NC(=O)c5ccc(C#Cc6ccc7c(c6)C(=O)N(C(C(=O)Nc6nccs6)c6ccccc6)C7)cn5)CC4)c3C2=O)C(=O)N1 (racemic) [Example 5, N-[1-[2-[[2-[(3RS)-2,6-Dioxo-3-piperidyl]-1,3-dioxo-isoindolin-4-yl]amino]acetyl]-4-piperidyl]-5-[2-[3-oxo-2-[(1RS)-2-oxo-1-phenyl-2-(thiazol-2-ylamino)ethyl]isoindolin-5-yl]ethynyl]pyridine-2-carboxamide] | 0.018 µM |
| O=C1CCC(N2C(=O)c3cccc(NCCCCN4CCC(NC(=O)c5ccc(C#Cc6ccc7c(c6)C(=O)N(C(C(=O)Nc6nccs6)c6cc(F)ccc6O)C7)cn5)CC4)c3C2=O)C(=O)N1 (racemic) [Example 10, N-[1-[4-[[2-[(3RS)-2,6-Dioxo-3-piperidyl]-1,3-dioxo-isoindolin-4-yl]amino]butyl]-4-piperidyl]-5-[2-[2-[(1RS)-1-(5-fluoro-2-hydroxy-phenyl)-2-oxo-2-(thiazol-2-ylamino)ethyl]-3-oxo-isoindolin-5-yl]ethynyl]pyridine-2-carboxamide] | 0.013 µM |
| O=C1CCC(N2C(=O)c3cccc(NCCCCN4CCC(NC(=O)c5ncc(C#Cc6ccc7c(c6)C(=O)N(C(C(=O)Nc6nccs6)c6ccccc6)C7)cc5F)CC4)c3C2=O)C(=O)N1 (racemic) [Example 8, N-[1-[4-[[2-[(3RS)-2,6-Dioxo-3-piperidyl]-1,3-dioxo-isoindolin-4-yl]amino]butyl]-4-piperidyl]-3-fluoro-5-[2-[3-oxo-2-[(1RS)-2-oxo-1-phenyl-2-(thiazol-2-ylamino)ethyl]isoindolin-5-yl]ethynyl]pyridine-2-carboxamide] | 0.02 µM |
| O=C1CCC(N2C(=O)c3ccc(N4CCC(CN5CCC(NC(=O)c6ccc(C#Cc7ccc8c(c7)C(=O)N(C(C(=O)Nc7ccccn7)c7ccccc7)C8)cn6)CC5)CC4)cc3C2=O)C(=O)N1 (racemic) [Example 11, N-[1-[[1-[2-[(3RS)-2,6-Dioxo-3-piperidyl]-1,3-dioxo-isoindolin-5-yl]-4-piperidyl]methyl]-4-piperidyl]-5-[2-[3-oxo-2-[(1RS)-2-oxo-1-phenyl-2-(2-pyridylamino)ethyl]isoindolin-5-yl]ethynyl]pyridine-2-carboxamide] | 0.048 µM |
| O=C1CCC(N2C(=O)c3cccc(NCCCCN4CCC(NC(=O)c5ccc(C#Cc6ccc7c(c6)C(=O)N(C(C(=O)Nc6ccccn6)c6ccccc6)C7)cn5)CC4)c3C2=O)C(=O)N1 (racemic) [Example 9, N-[1-[4-[[2-[(3RS)-2,6-Dioxo-3-piperidyl]-1,3-dioxo-isoindolin-4-yl]amino]butyl]-4-piperidyl]-5-[2-[3-oxo-2-[(1RS)-2-oxo-1-phenyl-2-(2-pyridylamino)ethyl]isoindolin-5-yl]ethynyl]pyridine-2-carboxamide] | 0.052 µM |
